Activity and Fold change data for 2 molecules are collected here from ChEMBL document CHEMBL1148852, “Glucosamine sulfate promotes osteoblastic differentiation of MG-63 cells via anti-inflammatory effect” (2007).

Assay [1] deals with MG-63. Description: Increase of collagen synthesis in human MG63 cells after 7 days. Format: functional, cell-based.
Assay [2] relates to MG-63. Description: Increase in alkaline phosphatase activity in human MG63 cells at 5 ug/mL after 24 hrs. Format: functional, cell-based.
Assay [3] concerns MG-63. Description: Increase of mineralization in human MG63 cells after 7 days. In kind it is functional, cell-based.
Assay [4] deals with MG-63. Description: Cytotoxicity against human MG63 cells up to 1000 ug/ml after 48 hrs by MTT assay. Format: functional, cell-based.
Assay [5] concerns RAW. Description: Reduction of lipopolysaccharide stimulated IL1-beta synthesis in mouse RAW 264.7 cells. Format: functional, cell-based.
Assay [6] has as its system MG-63. Description: Effect on osteocalcin secretion in human MG63 cells after 4 days. Format: functional, cell-based.
The test system of assay [7] is MG-63. Description: Increase in alkaline phosphatase activity in human MG63 cells at 1000 ug/mL after 24 hrs. Format: functional, cell-based.
Assay [8] has as its system MG-63. Description: Increase of collagen synthesis in human MG63 cells at 10 ug/mL relative to glucosamine. In kind it is functional.
Assay [9] has as its system RAW. Description: Inhibition of lipopolysaccharide stimulated TNFalpha synthesis in mouse RAW 264.7 cells. In kind it is functional, cell-based.
The test system of assay [10] is RAW. Description: Reduction of lipopolysaccharide stimulated PGE2 synthesis in mouse RAW 264.7 cells at 10 ug/mL. In kind it is functional, cell-based.
Assay [11] concerns MG-63. Description: Increase in alkaline phosphatase activity in human MG63 cells after 24 hrs. In kind it is functional, cell-based.
For assay [12], the system named is MG-63. Description: Effect on alkaline phosphatase activity in human MG63 cells at 100 ug/mL after 24 hrs. Format: functional, cell-based.

The source made the active and inactive calls. The rule behind the calls is not given here.

Regarding `N[C@@H]1[C@@H](O)[C@H](O)[C@@H](COS(=O)(=O)O)O[C@H]1O`, the Activity entry in assay [1] was “Dose-dependent effect”; in assay [4], “Not toxic”; in [6], “Dose-dependent effect”; in assay [11], “Dose-dependent effect”. The outcome in assay [2], in [3], in assay [5], in assay [9] and in assay [10] was Active. Also, the outcome in assay [7] was inactive. The same molecule displayed a Fold change in assay [8] of 3.
For `N[C@@H]1[C@@H](O)[C@H](O)[C@@H](CO)O[C@H]1O`, the Activity result in [6] is “Dose-dependent effect”. The outcome in assay [9] was Active. Further, the result in assay [12] was inactive.
